ChEMBL document CHEMBL4715724, “Novel 5-substituted-2-anilinoquinolines with 3-(morpholino or 4-methylpiperazin-1-yl)propoxy moiety as broad spectrum antiproliferative agents: Synthesis, cell based assays and kinase screening” (Bioorg Med Chem Lett, 2016)

Assays:
[1] = test system: RXF 393; experiment: cells; type: functional; conditions: Homo sapiens, time 48 hrs
Description: Growth inhibition of human RXF 393 cells incubated for 48 hrs by sulforhodamine B assay

[2] = test system: K562; experiment: cells; type: functional; conditions: Homo sapiens, time 48 hrs
Description: Growth inhibition of human K562 cells incubated for 48 hrs by sulforhodamine B assay

[3] = test system: HT-29; experiment: cells; type: functional; conditions: Homo sapiens, time 48 hrs
Description: Growth inhibition of human HT-29 cells incubated for 48 hrs by sulforhodamine B assay

[4] = test system: Panel leukemia (Carcinoma cell lines); experiment: cells; type: functional; conditions: Homo sapiens, time 48 hrs
Description: Growth inhibition of human Panel leukemia (Carcinoma cell lines) incubated for 48 hrs by sulforhodamine B assay

[5] = test system: U-251; experiment: cells; type: functional; conditions: Homo sapiens, time 48 hrs
Description: Growth inhibition of human U-251 cells incubated for 48 hrs by sulforhodamine B assay

[6] = Cytotoxicity against human HFF-1 cells assessed as cell growth inhibition at 1 uM by MTT assay relative to control; type: cell-based; conditions: read-out: GI
[7] = Cytotoxicity against human HFF-1 cells assessed as cell growth inhibition at 0.1 uM by MTT assay relative to control; type: cell-based; conditions: read-out: GI
[8] = test system: HOP-62; experiment: cells; type: functional; conditions: Homo sapiens, time 48 hrs
Description: Growth inhibition of human HOP-62 cells incubated for 48 hrs by sulforhodamine B assay

[9] = test system: UACC-257; experiment: cells; type: functional; conditions: Homo sapiens, time 48 hrs
Description: Growth inhibition of human UACC-257 cells incubated for 48 hrs by sulforhodamine B assay

[10] = test system: IGROV-1; experiment: cells; type: functional; conditions: Homo sapiens, time 48 hrs
Description: Growth inhibition of human IGROV-1 cells incubated for 48 hrs by sulforhodamine B assay

[11] = test system: Hs-578T; experiment: cells; type: functional; conditions: Homo sapiens, time 48 hrs
Description: Growth inhibition of human Hs-578T cells incubated for 48 hrs by sulforhodamine B assay

[12] = test system: NCI-H460; experiment: cells; type: functional; conditions: Homo sapiens, time 48 hrs
Description: Growth inhibition of human NCI-H460 cells incubated for 48 hrs by sulforhodamine B assay

[13] = test system: HCT-116; experiment: cells; type: functional; conditions: Homo sapiens, time 48 hrs
Description: Growth inhibition of human HCT-116 cells incubated for 48 hrs by sulforhodamine B assay

[14] = test system: Panel prostate (Carcinoma cell lines); experiment: cells; type: functional; conditions: Homo sapiens, time 48 hrs
Description: Growth inhibition of human Panel prostate (Carcinoma cell lines) incubated for 48 hrs by sulforhodamine B assay

[15] = test system: LOX IMVI; experiment: Growth inhibition of human LOX IMVI cells assessed as growth percentage at 10 uM measured after 48 hrs by sulforhodamine B assay relative to control; type: functional; conditions: read-out: Activity
[16] = test system: Panel CNS (Carcinoma cell lines); experiment: cells; type: functional; conditions: Homo sapiens, time 48 hrs
Description: Growth inhibition of human Panel CNS (Carcinoma cell lines) incubated for 48 hrs by sulforhodamine B assay

[17] = test system: NCI-H522; experiment: cells; type: functional; conditions: Homo sapiens, time 48 hrs
Description: Growth inhibition of human NCI-H522 cells incubated for 48 hrs by sulforhodamine B assay

[18] = test system: Panel breast (Carcinoma cell lines); experiment: cells; type: functional; conditions: Homo sapiens, time 48 hrs
Description: Growth inhibition of human Panel breast (Carcinoma cell lines) incubated for 48 hrs by sulforhodamine B assay

[19] = test system: PC-3; experiment: cells; type: functional; conditions: Homo sapiens, time 48 hrs
Description: Growth inhibition of human PC-3 cells incubated for 48 hrs by sulforhodamine B assay

[20] = test system: KM12; experiment: cells; type: functional; conditions: Homo sapiens, time 48 hrs
Description: Growth inhibition of human KM12 cells incubated for 48 hrs by sulforhodamine B assay

[21] = test system: NCI-H322M; experiment: cells; type: functional; conditions: Homo sapiens, time 48 hrs
Description: Growth inhibition of human NCI-H322M cells incubated for 48 hrs by sulforhodamine B assay

[22] = test system: Panel colon (Carcinoma cell lines); experiment: cells; type: functional; conditions: Homo sapiens, time 48 hrs
Description: Growth inhibition of human Panel colon (Carcinoma cell lines) incubated for 48 hrs by sulforhodamine B assay

[23] = test system: SK-MEL-28; experiment: cells; type: functional; conditions: Homo sapiens, time 48 hrs
Description: Growth inhibition of human SK-MEL-28 cells incubated for 48 hrs by sulforhodamine B assay

[24] = test system: HCT-15; experiment: cells; type: functional; conditions: Homo sapiens, time 48 hrs
Description: Growth inhibition of human HCT-15 cells incubated for 48 hrs by sulforhodamine B assay

[25] = test system: MCF7; experiment: cells; type: functional; conditions: Homo sapiens, time 48 hrs
Description: Growth inhibition of human MCF7 cells incubated for 48 hrs by sulforhodamine B assay

[26] = test system: HOP-92; experiment: cells; type: functional; conditions: Homo sapiens, time 48 hrs
Description: Growth inhibition of human HOP-92 cells incubated for 48 hrs by sulforhodamine B assay

[27] = test system: OVCAR-3; experiment: cells; type: functional; conditions: Homo sapiens, time 48 hrs
Description: Growth inhibition of human OVCAR-3 cells incubated for 48 hrs by sulforhodamine B assay

[28] = test system: TK-10; experiment: cells; type: functional; conditions: Homo sapiens, time 48 hrs
Description: Growth inhibition of human TK-10 cells incubated for 48 hrs by sulforhodamine B assay

[29] = test system: Panel NCI-60 (60 carcinoma cell lines); experiment: cells; type: functional; conditions: Homo sapiens, time 48 hrs
Description: Growth inhibition of human Panel NCI-60 (60 carcinoma cell lines) incubated for 48 hrs by sulforhodamine B assay

[30] = test system: SF-295; experiment: cells; type: functional; conditions: Homo sapiens, time 48 hrs
Description: Growth inhibition of human SF-295 cells incubated for 48 hrs by sulforhodamine B assay

[31] = test system: OVCAR-8; experiment: cells; type: functional; conditions: Homo sapiens, time 48 hrs
Description: Growth inhibition of human OVCAR-8 cells incubated for 48 hrs by sulforhodamine B assay

[32] = test system: MDA-MB-231; experiment: cells; type: functional; conditions: Homo sapiens, time 48 hrs
Description: Growth inhibition of human MDA-MB-231/ATCC cells incubated for 48 hrs by sulforhodamine B assay

[33] = test system: OVCAR-4; experiment: cells; type: functional; conditions: Homo sapiens, time 48 hrs
Description: Growth inhibition of human OVCAR-4 cells incubated for 48 hrs by sulforhodamine B assay

[34] = test system: A549; experiment: cells; type: functional; conditions: Homo sapiens, time 48 hrs
Description: Growth inhibition of human A549/ATCC cells incubated for 48 hrs by sulforhodamine B assay

[35] = test system: UO-31; experiment: cells; type: functional; conditions: Homo sapiens, time 48 hrs
Description: Growth inhibition of human UO-31 cells incubated for 48 hrs by sulforhodamine B assay

[36] = test system: CCRF-CEM; experiment: cells; type: functional; conditions: Homo sapiens, time 48 hrs
Description: Growth inhibition of human CCRF-CEM cells incubated for 48 hrs by sulforhodamine B assay

[37] = Cytotoxicity against human HFF-1 cells assessed as cell growth inhibition at 10 uM by MTT assay relative to control; type: cell-based; conditions: read-out: GI
[38] = test system: A498; experiment: cells; type: functional; conditions: Homo sapiens, time 48 hrs
Description: Growth inhibition of human A498 cells incubated for 48 hrs by sulforhodamine B assay

[39] = test system: NCI-H23; experiment: cells; type: functional; conditions: Homo sapiens, time 48 hrs
Description: Growth inhibition of human NCI-H23 cells incubated for 48 hrs by sulforhodamine B assay

[40] = test system: Panel renal (Carcinoma cell lines); experiment: cells; type: functional; conditions: Homo sapiens, time 48 hrs
Description: Growth inhibition of human Panel renal (Carcinoma cell lines) incubated for 48 hrs by sulforhodamine B assay

[41] = test system: Panel ovarian (Carcinoma cell lines); experiment: cells; type: functional; conditions: Homo sapiens, time 48 hrs
Description: Growth inhibition of human Panel ovarian (Carcinoma cell lines) incubated for 48 hrs by sulforhodamine B assay

[42] = test system: NCI-H226; experiment: cells; type: functional; conditions: Homo sapiens, time 48 hrs
Description: Growth inhibition of human NCI-H226 cells incubated for 48 hrs by sulforhodamine B assay

[43] = Cytotoxicity against human HFF-1 cells assessed as cell growth inhibition by MTT assay; type: cell-based
[44] = test system: LOX IMVI; experiment: cells; type: functional; conditions: Homo sapiens, time 48 hrs
Description: Growth inhibition of human LOX IMVI cells incubated for 48 hrs by sulforhodamine B assay

[45] = test system: MDA-MB-468; experiment: cells; type: functional; conditions: Homo sapiens, time 48 hrs
Description: Growth inhibition of human MDA-MB-468 cells incubated for 48 hrs by sulforhodamine B assay

[46] = test system: Panel melanoma (Carcinoma cell lines); experiment: cells; type: functional; conditions: Homo sapiens, time 48 hrs
Description: Growth inhibition of human Panel melanoma (Carcinoma cell lines) incubated for 48 hrs by sulforhodamine B assay

[47] = test system: UACC-62; experiment: cells; type: functional; conditions: Homo sapiens, time 48 hrs
Description: Growth inhibition of human UACC-62 cells incubated for 48 hrs by sulforhodamine B assay

[48] = cells; type: functional; conditions: Homo sapiens, Non-small cell lung cancer cell line; time 48 hrs
Description: Growth inhibition of human Non-small cell lung cancer cell line incubated for 48 hrs by sulforhodamine B assay

[49] = test system: M14; experiment: Growth inhibition of human M14 cells assessed as growth percentage at 10 uM measured after 48 hrs by sulforhodamine B assay relative to control; type: functional; conditions: read-out: Activity
[50] = read-out: LC50 (the source's name)

Compound `CN1CCN(CCCOc2cccc3nc(Nc4cc(Cl)cc(Cl)c4)ccc23)CC1` has a GI50 [1] of 1670 nM, a GI50 [2] of 1660 nM and a GI50 [3] of 1410 nM. The GI50 [4] was 1800 nM, the LC50 (50% lethal concentration) [4] was 100000 nM and the TGI [4] was 3960 nM. For the same compound, the GI50 [5] was 1720 nM, the inhibition at 1 µM [6] was 12% and the inhibition at 0.1 µM [7] was 12.5%. For the same compound, the GI50 [8] was 1370 nM, the GI50 [9] was 1970 nM and the GI50 [10] was 1680 nM. For the same compound, the GI50 [11] was 2500 nM, the GI50 [12] was 1840 nM and the GI50 [13] was 1940 nM. The GI50 [14] was 1730 nM, the LC50 (concentration killing 50% of cells) [14] was 5960 nM and the TGI [14] was 3210 nM. For the same compound, the growth at 10 µM [15] was -5.27%, the GI50 [16] was 1720 nM and the TGI [16] was 3260 nM. For the same compound, the CC50 [16, 50] was 6200 nM, the GI50 [17] was 1640 nM and the GI50 [18] was 2060 nM. It also gave a TGI [18] of 5670 nM, a CC50 [18, 50] of 21800 nM and a GI50 [19] of 1760 nM. The GI50 [20] was 1720 nM, the GI50 [21] was 1560 nM and the GI50 [22] was 1680 nM. For the same compound, the TGI [22] was 3190 nM, the CC50 [22, 50] was 6100 nM and the GI50 [23] was 1670 nM. It also gave a GI50 [24] of 1420 nM, a GI50 [25] of 1380 nM and a GI50 [26] of 1590 nM. For the same compound, the GI50 [27] was 1680 nM, the GI50 [28] was 1740 nM and the GI50 [29] was 1770 nM. It also gave a TGI [29] of 3720 nM, a CC50 [29, 50] of 8320 nM and a GI50 [30] of 1720 nM. The GI50 [31] was 1940 nM, the GI50 [32] was 1570 nM and the GI50 [33] was 2550 nM. It also gave a GI50 [34] of 1980 nM, a GI50 [35] of 1490 nM and a GI50 [36] of 1780 nM. It also gave an inhibition at 10 µM [37] of 13.3%, a GI50 [38] of 1780 nM and a GI50 [39] of 1720 nM. For the same compound, the GI50 [40] was 2070 nM, the LC50 (lethal concentration 50%) [40] was 17100 nM and the TGI [40] was 5560 nM. The GI50 [41] was 1870 nM, the LC50 [41] was 9180 nM and the TGI [41] was 4100 nM. For the same compound, the GI50 [42] was 1950 nM, the GI50 [43] was over 10000 nM and the GI50 [44] was 1580 nM. The GI50 [45] was 1690 nM, the GI50 [46] was 1800 nM and the LC50 [46] was 6620 nM. It also gave a TGI [46] of 3430 nM, a GI50 [47] of 1950 nM and a GI50 [48] of 1710 nM. For the same compound, the LC50 (50% lethal concentration) [48] was 8150 nM and the TGI [48] was 3510 nM.
With `CC(C)c1ccc(Nc2ccc3c(OCCCN4CCOCC4)cccc3n2)cc1` the growth at 10 µM [49] was 59.8%.
